Assay results: ChEMBL document CHEMBL1201861, “Genomics of Drug Sensitity in Cancer screening data, Wellcome Trust Sanger Institute”

Legend:
Assay in all cases: cells
COLO-800 = assay type: functional, cell-based, Homo sapiens; conditions: Homo sapiens, COLO-800;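 note: growth inhibition of COLO-800 cells, read out with a cell viability assay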
Description: SANGER: Inhibition of human COLO-800 cell growth in a cell viability assay.

COLO-824 = assay type: functional, cell-based, Homo sapiens; conditions: Homo sapiens, COLO-824
Description: SANGER: Inhibition of human COLO-824 cell growth in a cell viability assay.

CTB-1 = assay type: functional, cell-based, Homo sapiens; conditions: Homo sapiens, CTB-1
Description: SANGER: Inhibition of human CTB-1 cell growth in a cell viability assay.

CW-2 = assay type: functional, cell-based, Homo sapiens; conditions: Homo sapiens, CW-2;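 note: growth inhibition of CW-2 cells, read out by a cell viability assay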
Description: SANGER: Inhibition of human CW-2 cell growth in a cell viability assay.

DB = assay type: functional, cell-based, Homo sapiens; conditions: Homo sapiens, DB
Description: SANGER: Inhibition of human DB cell growth in a cell viability assay.

DMS-114 = assay type: functional, cell-based, Homo sapiens; conditions: Homo sapiens, DMS-114
DOHH-2 = assay type: functional, cell-based, Homo sapiens; conditions: Homo sapiens, DOHH-2;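 note: growth inhibition of human DOHH-2 cells, read out with a cell viability assay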
Description: SANGER: Inhibition of human DOHH-2 cell growth in a cell viability assay.

EM-2 = assay type: functional, cell-based, Homo sapiens; conditions: Homo sapiens, EM-2;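 note: growth inhibition of EM-2 cells, read out with a cell viability assay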
Description: SANGER: Inhibition of human EM-2 cell growth in a cell viability assay.

ES7 = assay type: functional, cell-based, Homo sapiens; conditions: Homo sapiens, ES7;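 note: growth inhibition of cultured human ES7 cells, read out as cell viability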
Description: SANGER: Inhibition of human ES7 cell growth in a cell viability assay.

EW-1 = assay type: functional, cell-based, Homo sapiens; conditions: Homo sapiens, EW-1;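 note: growth inhibition of the human EW-1 cell line, read out by a cell viability assay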
Description: SANGER: Inhibition of human EW-1 cell growth in a cell viability assay.

GI-1 = assay type: functional, cell-based, Homo sapiens; conditions: Homo sapiens, GI-1;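 note: growth inhibition of human GI-1 cells, measured with a cell viability readout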
Description: SANGER: Inhibition of human GI-1 cell growth in a cell viability assay.

GOTO = assay type: functional, cell-based, Homo sapiens; conditions: Homo sapiens, GOTO;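 note: growth inhibition of GOTO cells, read out by a cell viability assay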
Description: SANGER: Inhibition of human GOTO cell growth in a cell viability assay.

GR-ST = assay type: functional, cell-based, Homo sapiens; conditions: Homo sapiens, GR-ST
Description: SANGER: Inhibition of human GR-ST cell growth in a cell viability assay.

HT = assay type: functional, cell-based, Homo sapiens; conditions: Homo sapiens, HT
IST-MES1 = assay type: functional, cell-based, Homo sapiens; conditions: Homo sapiens, IST-MES1;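 note: growth inhibition of IST-MES1 cells, measured with a cell viability assay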
Description: SANGER: Inhibition of human IST-MES1 cell growth in a cell viability assay.

K5 = assay type: functional, cell-based, Homo sapiens; conditions: Homo sapiens, K5
Description: SANGER: Inhibition of human K5 cell growth in a cell viability assay.

KINGS-1 = assay type: functional, cell-based, Homo sapiens; conditions: Homo sapiens, KINGS-1;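 note: cell viability assay measuring suppression of KINGS-1 cell growth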
Description: SANGER: Inhibition of human KINGS-1 cell growth in a cell viability assay.

KNS-81-FD = assay type: functional, cell-based, Homo sapiens; conditions: Homo sapiens, KNS-81-FD;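 note: growth inhibition of KNS-81-FD cells, read out with a cell viability assay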
Description: SANGER: Inhibition of human KNS-81-FD cell growth in a cell viability assay.

LB2518-MEL = assay type: functional, cell-based; conditions: Homo sapiens;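 note: growth inhibition of human LB2518-MEL cells, measured with a cell viability assay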
MOLT-16 = assay type: functional, cell-based, Homo sapiens; conditions: Homo sapiens, MOLT-16;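 note: growth inhibition of human MOLT-16 cells, read out with a cell viability assay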
Description: SANGER: Inhibition of human MOLT-16 cell growth in a cell viability assay.

MSTO-211H = assay type: functional, cell-based, Homo sapiens; conditions: Homo sapiens, MSTO-211H
Description: SANGER: Inhibition of human MSTO-211H cell growth in a cell viability assay.

MZ1-PC = assay type: functional, cell-based, Homo sapiens; conditions: Homo sapiens, MZ1-PC;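 note: cell viability assay measuring growth inhibition of human MZ1-PC cells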
MZ2-MEL = assay type: functional, cell-based, Homo sapiens; conditions: Homo sapiens, MZ2-MEL;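 note: growth inhibition of MZ2-MEL cells read out with a cell viability assay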
Description: SANGER: Inhibition of human MZ2-MEL cell growth in a cell viability assay.

NB6 = assay type: functional, cell-based, Homo sapiens; conditions: Homo sapiens, NB6
Description: SANGER: Inhibition of human NB6 cell growth in a cell viability assay.

NB69 = assay type: functional, cell-based, Homo sapiens; conditions: Homo sapiens, NB69;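 note: growth inhibition of NB69 cells, determined by a cell viability assay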
Description: SANGER: Inhibition of human NB69 cell growth in a cell viability assay.

NCI-H1155 = assay type: functional, cell-based, Homo sapiens; conditions: Homo sapiens, NCI-H1155;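 note: cell growth inhibition measured by a viability assay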
Description: SANGER: Inhibition of human NCI-H1155 cell growth in a cell viability assay.

NCI-H1299 = assay type: functional, cell-based; conditions: Homo sapiens;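 note: growth inhibition of human NCI-H1299 cells, read out by a cell viability assay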
Description: SANGER: Inhibition of human NCI-H1299 cell growth in a cell viability assay.

NCI-H1581 = assay type: functional, cell-based, Homo sapiens; conditions: Homo sapiens, NCI-H1581;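 note: cell growth inhibition read out by a viability assay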
Description: SANGER: Inhibition of human NCI-H1581 cell growth in a cell viability assay.

NCI-H1838 = assay type: functional, cell-based, Homo sapiens; conditions: Homo sapiens, NCI-H1838;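 note: growth inhibition of NCI-H1838 cells, determined with a cell viability readout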
Description: SANGER: Inhibition of human NCI-H1838 cell growth in a cell viability assay.

NH-12 = assay type: functional, cell-based, Homo sapiens; conditions: Homo sapiens, NH-12;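 note: growth inhibition of NH-12 cells, read out with a cell viability assay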
Description: SANGER: Inhibition of human NH-12 cell growth in a cell viability assay.

NMC-G1 = assay type: functional, cell-based, Homo sapiens; conditions: Homo sapiens, NMC-G1;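 note: growth inhibition of the NMC-G1 cell line, measured with a cell viability read-out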
Description: SANGER: Inhibition of human NMC-G1 cell growth in a cell viability assay.

NOS-1 = assay type: functional, cell-based, Homo sapiens; conditions: Homo sapiens, NOS-1;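 note: growth inhibition of the human NOS-1 cell line, read out with a cell viability assay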
Description: SANGER: Inhibition of human NOS-1 cell growth in a cell viability assay.

NTERA-2-cl-D1 = assay type: functional, cell-based, Homo sapiens; conditions: Homo sapiens, NTERA-2-cl-D1;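 note: inhibition of cell growth, measured with a cell viability assay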
Description: SANGER: Inhibition of human NTERA-S-cl-D1 cell growth in a cell viability assay.

OCI-AML2 = assay type: functional, cell-based, Homo sapiens; conditions: Homo sapiens, OCI-AML2;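 note: growth inhibition of OCI-AML2 cells, read out with a cell viability assay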
ONS-76 = assay type: functional, cell-based, Homo sapiens; conditions: Homo sapiens, ONS-76;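 note: growth inhibition of human ONS-76 cells, read out with a cell viability assay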
Description: SANGER: Inhibition of human ONS-76 cell growth in a cell viability assay.

RH-1 = assay type: functional, cell-based, Homo sapiens; conditions: Homo sapiens, RH-1;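 note: growth inhibition of human RH-1 cells, read out with a cell viability assay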
Description: SANGER: Inhibition of human RH-1 cell growth in a cell viability assay.

Ramos-2G6-4C10 = assay type: functional, cell-based, Homo sapiens; conditions: Homo sapiens, Ramos-2G6-4C10;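 note: growth inhibition of the cell line, measured by a cell viability read-out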
Description: SANGER: Inhibition of human Ramos-2G6-4C10 cell growth in a cell viability assay.

SF-268 = assay type: functional, cell-based, Homo sapiens; conditions: Homo sapiens, SF-268;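 note: growth inhibition of SF-268 cells determined with a cell viability assay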
Description: SANGER: Inhibition of human SF268 cell growth in a cell viability assay.

SK-NEP-1 = assay type: functional, cell-based, Homo sapiens; conditions: Homo sapiens, SK-NEP-1;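 note: growth inhibition of human SK-NEP-1 cells, read out by a cell viability assay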
Description: SANGER: Inhibition of human SK-NEP-1 cell growth in a cell viability assay.

A101D = assay type: functional, cell-based, Homo sapiens; conditions: Homo sapiens, A101D;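 note: growth inhibition of the cell line, measured with a viability assay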
Description: SANGER: Inhibition of human A101D cell growth in a cell viability assay.

TE-10 = assay type: functional, cell-based, Homo sapiens; conditions: Homo sapiens, TE-10;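 note: growth inhibition of TE-10 cells, measured by a cell viability assay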
Description: SANGER: Inhibition of human TE-10 cell growth in a cell viability assay.

TE-6 = assay type: functional, cell-based, Homo sapiens; conditions: Homo sapiens, TE-6;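 note: growth inhibition of TE-6 cells, read out with a cell viability assay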
Description: SANGER: Inhibition of human TE-6 cell growth in a cell viability assay.

TE-9 = assay type: functional, cell-based, Homo sapiens; conditions: Homo sapiens, TE-9;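 note: cell growth inhibition, measured with a cell viability readout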
Description: SANGER: Inhibition of human TE-9 cell growth in a cell viability assay.

TGW = assay type: functional, cell-based, Homo sapiens; conditions: Homo sapiens, TGW;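 note: growth inhibition of human TGW cells, read out with a cell viability assay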
Description: SANGER: Inhibition of human TGW cell growth in a cell viability assay.

UACC-257 = assay type: functional, cell-based, Homo sapiens; conditions: Homo sapiens, UACC-257
Description: SANGER: Inhibition of human UACC-257 cell growth in a cell viability assay.

no-11 = assay type: functional, cell-based, Homo sapiens; conditions: Homo sapiens;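 note: growth inhibition of human NO-11 cells, read out with a cell viability assay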
Description: SANGER: Inhibition of human no-11 cell growth in a cell viability assay.

COLO-668 = assay type: functional, cell-based, Homo sapiens; conditions: Homo sapiens, COLO-668
Description: SANGER: Inhibition of human COLO-668 cell growth in a cell viability assay.

ML-2 = assay type: functional, cell-based, Homo sapiens; conditions: Homo sapiens, ML-2;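 note: growth inhibition of ML-2 cells, measured with a cell viability readout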
Description: SANGER: Inhibition of human ML-2 cell growth in a cell viability assay.

SBC-1 = assay type: functional, cell-based, Homo sapiens; conditions: Homo sapiens, SBC-1;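 note: cell viability assay measuring growth inhibition of the SBC-1 cell line, IC50 being the concentration that halves growth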
Description: SANGER: Inhibition of human SBC-1 cell growth in a cell viability assay.

BV-173 = assay type: functional, cell-based, Homo sapiens; conditions: Homo sapiens, BV-173
Description: SANGER: Inhibition of human BV-173 cell growth in a cell viability assay.

Measured: IC50

O=C(NCCCNc1nc(Nc2cccc(NC(=O)N3CCCC3)c2)ncc1I)c1cccs1 [BX-795]
2.69 µM: NCI-H1155
3.17 µM: MOLT-16
0.836 µM: ES7
2.8 µM: NH-12
3.64 µM: A101D
2.74 µM: NB6
2.4 µM: CTB-1
2.13 µM: DB
1.7 µM: RH-1
1.46 µM: DOHH-2
4.58 µM: TGW
1.08 µM: NTERA-2-cl-D1
4.08 µM: ONS-76
2.24 µM: Ramos-2G6-4C10
2.05 µM: COLO-800
1.16 µM: NB69
1.65 µM: SK-NEP-1
3.7 µM: KINGS-1
4.02 µM: SF-268
2.35 µM: EM-2
4.98 µM: GR-ST
not listed: ML-2 | SBC-1 | BV-173
> 5 µM: all other assays above

Cc1ccc(NC(=O)c2ccc(CN3CCN(C)CC3)cc2)cc1Nc1nccc(-c2cccnc2)n1 [IMATINIB]
0.0888 µM: EM-2
0.187 µM: BV-173
1.65 µM: NOS-1
not listed: NTERA-2-cl-D1 | UACC-257
> 2 µM: all other assays above

NC1(c2ccc(-c3nc4ccn5c(=O)[nH]nc5c4cc3-c3ccccc3)cc2)CCC1 [MK-2206]
1.81 µM: BV-173
0.44 µM: SBC-1
3.62 µM: DMS-114
1.28 µM: DOHH-2
1.14 µM: SK-NEP-1
0.632 µM: HT
1.29 µM: CTB-1
1.34 µM: Ramos-2G6-4C10
0.303 µM: MOLT-16
3.05 µM: GR-ST
0.637 µM: NOS-1
2.39 µM: NB69
0.979 µM: EM-2
not listed: K5 | NCI-H1838
> 4 µM: all other assays above

CS(=O)(=O)N1CCN(Cc2cc3nc(-c4cccc5[nH]ncc45)nc(N4CCOCC4)c3s2)CC1 [PICTILISIB]
0.342 µM: ES7
1.61 µM: Ramos-2G6-4C10
0.212 µM: NOS-1
1.14 µM: CTB-1
1.13 µM: HT
2.51 µM: EM-2
0.245 µM: NB69
0.726 µM: SK-NEP-1
0.99 µM: A101D
3.66 µM: MZ2-MEL
2.05 µM: NH-12
not listed: K5 | NTERA-2-cl-D1 | ML-2 | SBC-1 | BV-173
> 4 µM: all other assays above

CN(C)CCOc1ccc(-c2nc(-c3ccncc3)c(-c3ccc4c(c3)CC/C4=N\O)[nH]2)cc1 [SB590885]
0.5 µM: A101D
0.771 µM: BV-173
1.13 µM: UACC-257
not listed: K5
> 5 µM: all other assays above
